Results on one molecule are retold here after patent publication US5294609A, “DNA gyrase inhibitors and pharmaceutical preparations therefor” (Hoffmann-LaRoche Inc., priority 1991, dated 1994).

Series [1] can be described thus: Physicochemical properties of compound Ia.
The target of another series is T1, DNA gyrase (Escherichia coli, UniProt P0AES6).
T1 construct: supercoiling of relaxed pUC18 plasmid
As to the kind of experiment: Inhibition of DNA gyrase activity (DNA gyrase supercoiling assay). In kind it is biochemical, E. coli H560. Conditions: relaxed PUC18 substrate. The method, then:
The inhibition of DNA gyrase activity was measured using a DNA gyrase supercoiling assay according to R. Otter & N. Cozzarelli:Methods in Enzymology, Vol. 100, pp 171-180 (1983). DNA gyrase was isolated from E. coli H560, and relaxed PUC18 plasmed was used as substrate. The activities as regards inhibition of DNA gyrase activity, expressed as maximum non-effective concentration of the test compound (MNC in μg/ml) are compiled in the following Table 4: […]

Consider `Cc1c(O)cc(O)c2c1C(=O)OC[C@H](NC(=O)[C@@H]1[C@H](O)CCN1C(=O)[C@@H](N)CO)C(=O)N[C@H](C(=O)N[C@@H](C)C(=O)O)CSC2` [Example 12, N-[[(4R,7S)-1,3,4,5,6,7 8,10-octahydro-12,14-dihydroxy-7-[[(3R)-3-hydroxy-1-L-seryl-L-prolyl]amino]-11-methyl-6,10-dioxo-9,2,5-benzoxathiaazacyclododecin-4-yl]carbonyl]-L-alanine], for which the “solubility (in words)” value in series [1] is listed as “water soluble”. For the same molecule, the “maximum non-effective concentration of the test compound (MNC)” value at DNA gyrase was determined as 5 µg/mL.
